Experimental data taken from PubChem BioAssay AID248 (DTP/NCI, 2004).
Several values for one entry are separate records, joined by “and”; a condition that tells them apart may be missing. Equal values may be shown once. Toxic doses and inconclusive results are not listed.

System: L1210 leukemia ip in BDF1 mice, survival T/C
Test: NCI In Vivo Anticancer Drug Screen. Data for tumor model L1210 Leukemia (intraperitoneal) in B6D2F1 (BDF1) mice
Conditions: endpoint: mean survival time, higher = longer survival
How it was run: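 Mice bearing the transplanted tumor received compound or vehicle. Survival of the treated group was divided by that of the vehicle-treated control group to give the ratio.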

[1] = dose: 100.0 mg/kg/injection, schedule: Q01DX001 (ip), vehicle: other
[2] = dose: 100.0 mg/kg/injection, schedule: Q01DX001 (ip), vehicle: water
[3] = dose: 200.0 mg/kg/injection, schedule: Q01DX001 (ip), vehicle: other
[4] = dose: 200.0 mg/kg/injection, schedule: Q01DX001 (ip), vehicle: water
[5] = dose: 200.0 mg/kg/injection, schedule: Q01DX009 (ip), vehicle: saline with Tween-80
[6] = dose: 400.0 mg/kg/injection, schedule: Q01DX001 (ip), vehicle: other
[7] = dose: 100.0 mg/kg/injection, schedule: Q04DX003 (ip), vehicle: saline with Tween-80
[8] = dose: 200.0 mg/kg/injection, schedule: Q04DX003 (ip), vehicle: saline with Tween-80
[9] = dose: 400.0 mg/kg/injection, schedule: Q04DX003 (ip), vehicle: saline with Tween-80

For `CN(Cc1ccccc1)/N=N/c1nc[nH]c1C(N)=O`, the T/C (dose: 4.0 mg/kg/injection, schedule: Q01DX009 (ip), vehicle: saline with Tween-80) was 98 % of control, the T/C (dose: 8.0 mg/kg/injection, schedule: Q01DX009 (ip), vehicle: saline with Tween-80) was 103 % of control and the T/C (dose: 22.0 mg/kg/injection, schedule: Q01DX009 (ip), vehicle: saline with Tween-80) was 98 % of control. The T/C (dose: 25.0 mg/kg/injection, schedule: Q01DX009 (ip), vehicle: water) was 122 % of control, the T/C (dose: 35.0 mg/kg/injection, schedule: Q01DX009 (ip), vehicle: saline with Tween-80) was 117 % of control and the T/C (dose: 50.0 mg/kg/injection, schedule: Q01DX001 (ip), vehicle: water) was 102 % of control. The T/C (dose: 50.0 mg/kg/injection, schedule: Q01DX009 (ip), vehicle: saline) was 124 % of control, the T/C (dose: 50.0 mg/kg/injection, schedule: Q04DX003 (ip), vehicle: water) was 105 % of control and the T/C [1] was 104 % of control. For the same molecule, the T/C [2] was 108 % of control, the T/C (dose: 100.0 mg/kg/injection, schedule: Q01DX009 (ip), vehicle: acetone) was 181 % of control and the T/C (dose: 100.0 mg/kg/injection, schedule: Q01DX009 (ip), vehicle: water) was 171 % of control and 175 % of control. For the same molecule, the T/C (dose: 100.0 mg/kg/injection, schedule: Q04DX003 (ip), vehicle: other) was 102 % of control, the T/C [3] was 108 % of control and the T/C [4] was 113 % of control. The T/C (dose: 200.0 mg/kg/injection, schedule: Q01DX009 (ip), vehicle: acetone) was 150 % of control, the T/C [5] was 176 % of control and the T/C (dose: 200.0 mg/kg/injection, schedule: Q01DX009 (ip), vehicle: water) was 106 % of control and 113 % of control. For the same molecule, the T/C (dose: 200.0 mg/kg/injection, schedule: Q04DX003 (ip), vehicle: other) was 122 % of control, the T/C [6] was 112 % of control and the T/C (dose: 400.0 mg/kg/injection, schedule: Q01DX009 (ip), vehicle: acetone) was 87 % of control. For the same molecule, the T/C (dose: 400.0 mg/kg/injection, schedule: Q04DX003 (ip), vehicle: other) was 155 % of control.
In the case of `CNC(=O)Oc1cccc(C=O)c1`, the T/C [1] is reported as 102 % of control, the T/C [3] is reported as 117 % of control and the T/C [6] is reported as 102 % of control.
For `COC(=O)CCCCCCCCC(C)c1ccc(C(C)=O)cc1` (configuration not stated), the T/C (dose: 100.0 mg/kg/injection, schedule: Q01DX009 (ip), vehicle: saline with Tween-80) was 95 % of control, the T/C [7] was 99 % of control and the T/C [5] was 87 % of control. The T/C [8] was 95 % of control, the T/C (dose: 400.0 mg/kg/injection, schedule: Q01DX009 (ip), vehicle: saline with Tween-80) was 96 % of control and the T/C [9] was 89 % of control.
`CCSC(C(OC(C)=O)C(OC(C)=O)C(OC(C)=O)C(COC(C)=O)OC(C)=O)n1cc(C)c(=O)[nH]c1=O` (configuration not stated) was tested, and the T/C (dose: 50.0 mg/kg/injection, schedule: Q01DX001 (ip), vehicle: carboxymethylcellulose (CMC)) was 100 % of control and 97 % of control, the T/C (dose: 100.0 mg/kg/injection, schedule: Q01DX001 (ip), vehicle: carboxymethylcellulose (CMC)) was 97 % of control and 94 % of control and the T/C (dose: 200.0 mg/kg/injection, schedule: Q01DX001 (ip), vehicle: carboxymethylcellulose (CMC)) was 100 % of control. The T/C (dose: 400.0 mg/kg/injection, schedule: Q01DX001 (ip), vehicle: carboxymethylcellulose (CMC)) was 100 % of control and 103 % of control.
In the case of `CC12CCC(O)CC1CCC1C2CCC2(C)C(C(=O)CO)CCC12` (configuration not stated), the T/C (dose: 100.0 mg/kg/injection, schedule: Q01DX001 (sc), vehicle: steriod suspending solution) is reported as 103 % of control, the T/C (dose: 200.0 mg/kg/injection, schedule: Q01DX001 (sc), vehicle: steriod suspending solution) is reported as 103 % of control and the T/C (dose: 400.0 mg/kg/injection, schedule: Q01DX001 (sc), vehicle: steriod suspending solution) is reported as 101 % of control.
With `COc1ccc(C(=O)OCc2ccccc2CN2CCCCC2)cc1` the T/C (dose: 100.0 mg/kg/injection, schedule: Q04DX002 (ip), vehicle: Klucel (hydroxypropylcellulose) (HPC)) was 102 % of control, the T/C (dose: 200.0 mg/kg/injection, schedule: Q04DX002 (ip), vehicle: Klucel (hydroxypropylcellulose) (HPC)) was 102 % of control and the T/C (dose: 400.0 mg/kg/injection, schedule: Q04DX002 (ip), vehicle: Klucel (hydroxypropylcellulose) (HPC)) was 86 % of control.
In the case of `COc1ccc(CCN(CCO)CCNS(=O)(=O)c2ccc(C)cc2)cc1`, the T/C [2] is reported as 98 % of control, the T/C [4] is reported as 107 % of control and the T/C (dose: 400.0 mg/kg/injection, schedule: Q01DX001 (ip), vehicle: water) is reported as 107 % of control.
`Nc1cccc2c1C(=O)c1cccc(N)c1C2=O` was tested, and the T/C (dose: 100.0 mg/kg/injection, schedule: Q04DX003 (ip), vehicle: Klucel (hydroxypropylcellulose) (HPC)) was 101 % of control, the T/C (dose: 200.0 mg/kg/injection, schedule: Q04DX003 (ip), vehicle: Klucel (hydroxypropylcellulose) (HPC)) was 96 % of control and the T/C (dose: 400.0 mg/kg/injection, schedule: Q04DX003 (ip), vehicle: Klucel (hydroxypropylcellulose) (HPC)) was 96 % of control.
In the case of `S=c1nc(-c2ccccc2)[nH][nH]1`, the T/C [7] is reported as 97 % of control, the T/C [8] is reported as 98 % of control and the T/C [9] is reported as 88 % of control.
`CCN(C(=O)Nc1cccc(Cl)c1)c1ccccc1C` was tested, and the T/C [7] was 93 % of control and the T/C [8] was 88 % of control.
